Results: PubChem BioAssay AID250 (DTP/NCI, 2004)
Several values for one entry are separate records, joined by “and”; a condition that tells them apart may be missing. Identical values can stand only once. Inconclusive results and toxic doses are left out.

Tested on: BDF1 mice, L1210 leukemia sc, survival T/C
Test: NCI In Vivo Anticancer Drug Screen. Data for tumor model L1210 Leukemia (subcutaneous) in B6D2F1 (BDF1) mice
Settings: endpoint: median survival time, higher = longer survival
How it was run: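 Read-out: T/C ratio, i.e. survival or tumor size in treated mice over that in vehicle-treated controls, from mice bearing transplantable tumors.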

[1] = dose: 64.8 mg/kg/injection, schedule: Q01DX Z (sc), vehicle: methylcellulose (MC)
[2] = dose: 108.0 mg/kg/injection, schedule: Q01DX Z (sc), vehicle: methylcellulose (MC)
[3] = dose: 180.0 mg/kg/injection, schedule: Q01DX Z (sc), vehicle: methylcellulose (MC)
[4] = dose: 300.0 mg/kg/injection, schedule: Q01DX Z (sc), vehicle: methylcellulose (MC)
[5] = dose: 500.0 mg/kg/injection, schedule: Q01DX Z (sc), vehicle: methylcellulose (MC)
[6] = dose: 23.0 mg/kg/injection, schedule: Q01DX Z (sc), vehicle: methylcellulose (MC)

OCC1OC(n2cnc3c(=S)nc[nH]c32)C(O)C1O (stereo not given)
T/C (dose: 38.9 mg/kg/injection, schedule: Q01DX Z (sc), vehicle: methylcellulose (MC)): 110 % of control | T/C (dose: 50.0 mg/kg/injection, schedule: Q03HX024 (ip), vehicle: other): 150 % of control | T/C [1]: 155 % of control | T/C (dose: 100.0 mg/kg/injection, schedule: Q03HX024 (ip), vehicle: other): 155 % of control | T/C (dose: 100.0 mg/kg/injection, schedule: Q03HX024 (sc), vehicle: other): 155 % of control | T/C [2]: 160 % of control | T/C [3]: 150 % of control | T/C (dose: 200.0 mg/kg/injection, schedule: Q03HX024 (ip), vehicle: other): 161 % of control | T/C (dose: 200.0 mg/kg/injection, schedule: Q03HX024 (sc), vehicle: other): 155 % of control | T/C [4]: 150 % of control | T/C (dose: 400.0 mg/kg/injection, schedule: Q01DX009 (ip), vehicle: other): 155 % of control | T/C (dose: 400.0 mg/kg/injection, schedule: Q01DX009 (sc), vehicle: other): 150 % of control | T/C (dose: 400.0 mg/kg/injection, schedule: Q03HX024 (ip), vehicle: other): 155 % of control | T/C (dose: 400.0 mg/kg/injection, schedule: Q03HX024 (sc), vehicle: other): 105 % of control | T/C (dose: 800.0 mg/kg/injection, schedule: Q01DX009 (ip), vehicle: other): 155 % of control | T/C (dose: 800.0 mg/kg/injection, schedule: Q01DX009 (sc), vehicle: other): 161 % of control | T/C (dose: 1600.0 mg/kg/injection, schedule: Q01DX009 (ip), vehicle: other): 122 % of control | T/C (dose: 1600.0 mg/kg/injection, schedule: Q01DX009 (sc), vehicle: other): 155 % of control | T/C (dose: 3200.0 mg/kg/injection, schedule: Q01DX009 (sc), vehicle: other): 111 % of control | T/C (dose: 3200.0 mg/kg/injection, schedule: Q04DX003 (sc), vehicle: other): 150 % of control

c1ccc(CNc2ncnc3[nH]ncc23)cc1
T/C (dose: 23.3 mg/kg/injection, schedule: Q01DX Z (sc), vehicle: methylcellulose (MC)): 115 % of control | T/C [1]: 120 % of control | T/C [2]: 110 % of control | T/C [3]: 110 % of control | T/C [4]: 100 % of control | T/C [5]: 100 % of control

NC(=O)c1ccc([N+](=O)[O-])cc1
T/C [6]: 90 % of control | T/C (dose: 39.0 mg/kg/injection, schedule: Q01DX Z (sc), vehicle: methylcellulose (MC)): 100 % of control | T/C (dose: 65.0 mg/kg/injection, schedule: Q01DX Z (sc), vehicle: methylcellulose (MC)): 90 % of control | T/C [2]: 90 % of control | T/C [3]: 90 % of control | T/C [4]: 100 % of control | T/C [5]: 100 % of control

CCN(CC)P(=O)(N1CC1)N1CC1
T/C (dose: 1.08 mg/kg/injection, schedule: Q01DX Z (sc), vehicle: saline): 100 % of control | T/C (dose: 1.8 mg/kg/injection, schedule: Q01DX Z (sc), vehicle: saline): 100 % of control | T/C (dose: 3.0 mg/kg/injection, schedule: Q01DX Z (sc), vehicle: saline): 110 % of control | T/C (dose: 5.0 mg/kg/injection, schedule: Q01DX Z (sc), vehicle: saline): 115 % of control | T/C (dose: 8.4 mg/kg/injection, schedule: Q01DX Z (sc), vehicle: saline): 170 % of control and 194 % of control | T/C (dose: 14.0 mg/kg/injection, schedule: Q01DX Z (sc), vehicle: saline): 150 % of control and 183 % of control | T/C (dose: 23.0 mg/kg/injection, schedule: Q01DX Z (sc), vehicle: saline): 155 % of control | T/C (dose: 39.0 mg/kg/injection, schedule: Q01DX Z (sc), vehicle: saline): 111 % of control | T/C (dose: 65.0 mg/kg/injection, schedule: Q01DX Z (sc), vehicle: saline): 111 % of control | T/C (dose: 108.0 mg/kg/injection, schedule: Q01DX Z (sc), vehicle: saline): 100 % of control

CCC1=C(c2ccc(OC)cc2)CCC(C(=O)O)C1C (stereo not given)
T/C (dose: 14.0 mg/kg/injection, schedule: Q01DX Z (sc), vehicle: steriod suspending solution): 105 % of control | T/C (dose: 23.0 mg/kg/injection, schedule: Q01DX Z (sc), vehicle: steriod suspending solution): 100 % of control | T/C (dose: 39.0 mg/kg/injection, schedule: Q01DX Z (sc), vehicle: steriod suspending solution): 105 % of control | T/C (dose: 65.0 mg/kg/injection, schedule: Q01DX Z (sc), vehicle: steriod suspending solution): 100 % of control | T/C (dose: 108.0 mg/kg/injection, schedule: Q01DX Z (sc), vehicle: steriod suspending solution): 100 % of control and 111 % of control | T/C (dose: 180.0 mg/kg/injection, schedule: Q01DX Z (sc), vehicle: steriod suspending solution): 100 % of control and 105 % of control | T/C (dose: 300.0 mg/kg/injection, schedule: Q01DX Z (sc), vehicle: steriod suspending solution): 100 % of control and 111 % of control | T/C (dose: 500.0 mg/kg/injection, schedule: Q01DX Z (sc), vehicle: steriod suspending solution): 111 % of control | T/C (dose: 833.0 mg/kg/injection, schedule: Q01DX Z (sc), vehicle: steriod suspending solution): 100 % of control

CC[n+]1c(-c2ccccc2)c2cc(N)ccc2c2ccc(N)cc21
T/C (dose: 39.0 mg/kg/injection, schedule: Q01DX Z (sc), vehicle: carboxymethylcellulose (CMC)): 110 % of control | T/C (dose: 65.0 mg/kg/injection, schedule: Q01DX Z (sc), vehicle: carboxymethylcellulose (CMC)): 115 % of control | T/C (dose: 108.0 mg/kg/injection, schedule: Q01DX Z (sc), vehicle: carboxymethylcellulose (CMC)): 95 % of control

C1OC1CN1CCC(C2CCN(CC3CO3)CC2)CC1 (stereo not given)
T/C (dose: 5.0 mg/kg/injection, schedule: Q01DX Z (sc), vehicle: methylcellulose (MC)): 109 % of control | T/C (dose: 14.0 mg/kg/injection, schedule: Q01DX Z (sc), vehicle: methylcellulose (MC)): 109 % of control | T/C [6]: 104 % of control | T/C (dose: 65.0 mg/kg/injection, schedule: Q03DX Z (sc), vehicle: methylcellulose (MC)): 109 % of control | T/C [2]: 118 % of control | T/C (dose: 180.0 mg/kg/injection, schedule: Q03DX Z (sc), vehicle: methylcellulose (MC)): 118 % of control

CC[C@]1(O)C[C@H]2CN(CCc3c([nH]c4ccccc34)[C@@](C(=O)OC)(c3cc4c(cc3OC)N(C=O)[C@H]3[C@@](O)(C(=O)OC)[C@H](OC(C)=O)[C@]5(CC)C=CCN6CC[C@]43[C@@H]65)C2)C1
T/C (dose: 0.25 mg/kg/injection, schedule: Q01DX001 (sc), vehicle: water): 100 % of control and 101 % of control | T/C (dose: 0.5 mg/kg/injection, schedule: Q01DX001 (sc), vehicle: water): 104 % of control and 105 % of control | T/C (dose: 0.65 mg/kg/injection, schedule: Q01DX Z (oral), vehicle: water): 116 % of control | T/C (dose: 1.0 mg/kg/injection, schedule: Q01DX001 (sc), vehicle: water): 111 % of control | T/C (dose: 1.08 mg/kg/injection, schedule: Q01DX Z (oral), vehicle: water): 122 % of control | T/C (dose: 1.08 mg/kg/injection, schedule: Q02DX Z (sc), vehicle: water): 111 % of control | T/C (dose: 1.8 mg/kg/injection, schedule: Q01DX Z (oral), vehicle: water): 100 % of control | T/C (dose: 1.8 mg/kg/injection, schedule: Q02DX Z (sc), vehicle: water): 122 % of control | T/C (dose: 2.0 mg/kg/injection, schedule: Q01DX001 (sc), vehicle: water): 120 % of control and 122 % of control | T/C (dose: 3.0 mg/kg/injection, schedule: Q01DX Z (oral), vehicle: water): 100 % of control | T/C (dose: 3.0 mg/kg/injection, schedule: Q02DX Z (sc), vehicle: water): 122 % of control | T/C (dose: 5.0 mg/kg/injection, schedule: Q01DX Z (oral), vehicle: water): 100 % of control | T/C (dose: 5.0 mg/kg/injection, schedule: Q02DX Z (sc), vehicle: water): 116 % of control | T/C (dose: 8.4 mg/kg/injection, schedule: Q02DX Z (sc), vehicle: water): 100 % of control
